11 molecules from ChEMBL document CHEMBL1201862, “PubChem BioAssay data set” (2004) can be followed below.

Assay in all cases: inhibition of tumour cell growth, NCI panel, 48 h
Experiment [1] concerns ACHN.
Experiment [2] concerns CAKI-1.
Experiment [3] deals with EKVX.
Experiment [4] relates to HCT-15.
Experiment [5] relates to HT-29.
For experiment [6], the system named is K562.
Experiment [7] relates to LOX IMVI.
The subject of experiment [8] is M14.
In experiment [9] the test system is MCF7.
In experiment [10] the test system is NCI-H460.
The test system of experiment [11] is NCI-H522.
Experiment [12] relates to OVCAR-3.
The test system of experiment [13] is OVCAR-8.
The test system of experiment [14] is PC-3.
The test system of experiment [15] is RPMI-8226.
Experiment [16] relates to SK-MEL-28.
Experiment [17] concerns SK-OV-3.
Experiment [18] relates to SNB-75.
The subject of experiment [19] is SR.
Experiment [20] concerns SF-539.

SMILES strings stand for the structures.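 Grown in 96-well plates, cells were treated for 48 hours with each compound at five concentrations. Insufficient inhibition: endpoint recorded as highest concentration tested. Abbreviation: GI50, concentration required for 50% inhibition of growth.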 Activity calls are given as the source filed them. No stated cut-off is given here; in the data, active = GI50 up to about 1.1 µM and inactive = higher.

`Nc1nc(SCc2ccccn2)c2ncn(C3CCCC3)c2n1`: the GI50 in [1] is > 100 µM (inactive); in experiment [2], > 100 µM (inactive); in experiment [3] it was > 100 µM (inactive); in [4], more than 100 µM; in experiment [5], > 100 µM (inactive); in experiment [6], > 100 µM (inactive). Moreover, the GI50 was > 100 µM (inactive) in experiment [7]; > 100 µM (inactive) in experiment [8]; > 100 µM (inactive) in experiment [9]; > 100 µM (inactive) in experiment [10]; 59.7 µM (inactive) in experiment [11]; > 100 µM (inactive) in [12]. Also, the GI50 in [13] is > 100 µM (inactive); in experiment [14], > 100 µM (inactive); in experiment [15], > 100 µM (inactive); in experiment [16], > 100 µM (inactive); in experiment [17], > 100 µM (inactive); in experiment [18], 40.5 µM (inactive). For the same molecule, the GI50 in experiment [19] is > 100 µM (inactive).
Turning to `COc1cc(NCc2ccc3nc(-c4ccccc4)c(N)nc3c2)cc(OC)c1OC`, the GI50 in experiment [1] is 29.4 µM (inactive); in experiment [2] it was 28.8 µM (inactive); in experiment [3], 33.2 µM (inactive); in [4], 28.7 µM; in experiment [5], 32.9 µM (inactive); in [6] it was 41 µM (inactive). The GI50 is 41.9 µM (inactive) in experiment [7]; 18.4 µM (inactive) in [8]; 28.5 µM (inactive) in experiment [9]; 31.4 µM (inactive) in experiment [10]; 23.7 µM (inactive) in experiment [11]; 25.6 µM (inactive) in [12]. Further, the GI50 in experiment [13] was 27.7 µM (inactive); in experiment [14], 28.2 µM (inactive); in [20], 29.7 µM (inactive); in [16], 27.4 µM (inactive); in experiment [17] it was 42.3 µM (inactive); in experiment [18], 19.1 µM (inactive). Further, the GI50 in [19] is 37.8 µM (inactive).
As for `O=C(c1ccccc1)c1ccc2[nH]c(-c3c(Cl)c(Cl)c(Cl)c(Cl)c3C(=O)Nc3ccco3)nc2c1`, the GI50 in experiment [1] was > 100 µM (inactive); in experiment [2], > 100 µM (inactive); in [3] it was 67 µM (inactive); in experiment [4] it was 27.2 µM; in experiment [5] it was 28.4 µM (inactive); in [6], 16.6 µM (inactive). The GI50 in [7] is 38.1 µM (inactive); in [8] it was 36.7 µM (inactive); in [9], 24.8 µM (inactive); in [10] it was 33.5 µM (inactive); in experiment [11], 25.7 µM (inactive); in experiment [12], 49.4 µM (inactive). Moreover, the GI50 was 60.3 µM (inactive) in experiment [13]; 17.1 µM (inactive) in experiment [14]; 19.8 µM (inactive) in experiment [15]; 81.1 µM (inactive) in [16]; > 100 µM (inactive) in [17]; > 100 µM (inactive) in experiment [18]. Besides, in [19], the GI50 is 12.6 µM (inactive).
Regarding `CCCC1(CCC)c2cc(/C=N\O)ccc2-c2ccc(-c3ccc(C(C)(C)C)cc3)cc21`, the GI50 in experiment [1] was 41.9 µM (inactive); in experiment [2], > 100 µM (inactive); in experiment [3], 56.8 µM (inactive); in experiment [4], more than 100 µM; in [5], > 100 µM (inactive); in experiment [6] it was 45.7 µM (inactive). For the same molecule, the GI50 in [7] was 32.7 µM (inactive); in experiment [8], 50.2 µM (inactive); in experiment [9], 25.6 µM (inactive); in experiment [10], 38.5 µM (inactive); in experiment [12], 22.9 µM (inactive); in [13], 32.5 µM (inactive). Besides, the GI50 is 59.6 µM (inactive) in [14]; 33.7 µM (inactive) in experiment [15]; > 100 µM (inactive) in [20]; 26.7 µM (inactive) in experiment [16]; > 100 µM (inactive) in [17]; 67.1 µM (inactive) in experiment [18]. The GI50 in [19] was 25.9 µM (inactive).
`COC1=CC2=NCCc3n[nH]c(c32)C1=O`: the GI50 in experiment [1] is 19.2 µM (inactive); in experiment [3], 16.9 µM (inactive); in experiment [4] it was 46.3 µM; in experiment [5] it was 13 µM (inactive); in experiment [6] it was 0.0545 µM (active); in [7] it was 2.35 µM (inactive). The GI50 in [8] was 15 µM (inactive); in experiment [9] it was 4.86 µM (inactive); in experiment [10], 27 µM (inactive); in experiment [11], 3.51 µM (inactive); in experiment [12], 15.9 µM (inactive); in experiment [13], 15.2 µM (inactive). Also, the GI50 in [14] is 19.5 µM (inactive); in experiment [15], 11.5 µM (inactive); in experiment [20], 17.3 µM (inactive); in [16], 18.1 µM (inactive); in experiment [19] it was 13.4 µM (inactive).
As for `COC(=O)C1=C(C(=O)OC)SC(=C2SC3=C(SC(=C4SCCS4)S3)S2)S1`, the GI50 in experiment [1], in [2], in experiment [3], in experiment [5], in [6] and in experiment [7] was > 100 µM (inactive) in each case. Besides, the GI50 in [8], in experiment [9], in experiment [11], in experiment [13], in experiment [14] and in [15] was > 100 µM (inactive) in each case. Moreover, the GI50 in experiment [16] is > 100 µM (inactive); in experiment [17], > 100 µM (inactive); in experiment [18], 0.0302 µM (active); in experiment [19] it was > 100 µM (inactive).
As to `Cn1nc2ccc(Nc3cc(=O)[nH]c4ccc5nn(C)nc5c34)cc2n1`, the GI50 was > 100 µM (inactive) in experiment [1]; > 100 µM (inactive) in [2]; > 100 µM (inactive) in [3]; more than 100 µM in [4]; > 100 µM (inactive) in [5]; 50 µM (inactive) in experiment [6]. Also, the GI50 is > 100 µM (inactive) in [8]; > 100 µM (inactive) in [9]; > 100 µM (inactive) in experiment [10]; 65.6 µM (inactive) in experiment [11]; > 100 µM (inactive) in experiment [12]; > 100 µM (inactive) in [13]. Also, the GI50 is > 100 µM (inactive) in experiment [14]; > 100 µM (inactive) in [20]; > 100 µM (inactive) in experiment [16]; > 100 µM (inactive) in experiment [17]; > 100 µM (inactive) in experiment [18]; 53.2 µM (inactive) in experiment [19].
On to `CN1CCN(/C(N)=C(\C#N)C(=O)Nc2ccc(Cl)cc2)CC1`, for which the GI50 in experiment [1] is > 100 µM (inactive); in experiment [2], 79.8 µM (inactive); in [3], 78.2 µM (inactive); in experiment [4], 57.9 µM; in experiment [5], > 100 µM (inactive); in experiment [6], 23 µM (inactive). For the same molecule, the GI50 in experiment [7] was 47.9 µM (inactive); in experiment [8] it was 30.6 µM (inactive); in experiment [9], 68.4 µM (inactive); in experiment [10], 74.6 µM (inactive); in experiment [12], 41.7 µM (inactive); in experiment [13], > 100 µM (inactive). Further, the GI50 in experiment [14] was 39.8 µM (inactive); in experiment [15], 27.5 µM (inactive); in experiment [20], > 100 µM (inactive); in [16], 46.6 µM (inactive); in experiment [17], > 100 µM (inactive); in experiment [18], > 100 µM (inactive). Also, in experiment [19], the GI50 was 35.1 µM (inactive).
Consider `COC(=O)CC1C2CC3C(C2=O)C13` (stereo not drawn), for which the GI50 in experiment [1] is > 100 µM (inactive); in experiment [2], > 100 µM (inactive); in [3] it was > 100 µM (inactive); in experiment [4] it was more than 100 µM; in experiment [5], > 100 µM (inactive); in experiment [6], > 100 µM (inactive). Besides, the GI50 in [7], in [8], in experiment [9], in experiment [10], in experiment [11] and in experiment [12] was > 100 µM (inactive) in each case. The GI50 was > 100 µM (inactive) in experiment [13]; > 100 µM (inactive) in experiment [14]; > 100 µM (inactive) in experiment [20]; > 100 µM (inactive) in [16]; > 100 µM (inactive) in experiment [17]; 58.1 µM (inactive) in experiment [18]. For the same molecule, the GI50 in experiment [19] is > 100 µM (inactive).
`NC(=O)c1cc2ccccc2o/c1=N/c1ccccc1`: the GI50 in experiment [1] was > 100 µM (inactive); in experiment [2] it was > 100 µM (inactive); in experiment [3] it was > 100 µM (inactive); in [4] it was more than 100 µM; in experiment [5], > 100 µM (inactive); in [6], > 100 µM (inactive). In addition, the GI50 in [7], in [8], in experiment [9], in experiment [10], in experiment [12] and in experiment [13] was > 100 µM (inactive) in each case. In addition, the GI50 in experiment [14], in experiment [15], in experiment [20], in [16], in experiment [17] and in experiment [18] was > 100 µM (inactive) in each case. The GI50 in experiment [19] is > 100 µM (inactive).
Turning to `NC(=O)NC(=O)CCC(NS(=O)(=O)c1ccccc1)C(=O)NC(N)=O` (stereo not drawn), the GI50 in experiment [1] was > 100 µM (inactive); in experiment [2], > 100 µM (inactive); in [3], > 100 µM (inactive); in experiment [4], more than 100 µM; in experiment [5], > 100 µM (inactive); in [6], > 100 µM (inactive). Besides, the GI50 in experiment [7], in [8], in experiment [9], in experiment [10], in experiment [11] and in [12] was > 100 µM (inactive) each time. Also, the GI50 in experiment [13], in experiment [14], in experiment [20], in [16], in [17] and in experiment [18] was > 100 µM (inactive) each time. Also, in [19], the GI50 was > 100 µM (inactive).
